# From ChEMBL document CHEMBL3822392, “Design, synthesis and apoptosis inducing effect of novel (Z)-3-(3'-methoxy-4'-(2-amino-2-oxoethoxy)-benzylidene)indolin-2-ones as potential antitumour agents” (Eur J Med Chem, 2016)
# The source made the active and inactive calls. The calls are words filed in the database; no cut-off is given here.
# Tests used:
# [1] = Cytotoxicity against human DU145 cells after 48 hrs by MTT assay; format: functional, cell-based; conditions: DU-145, 48 h
# [2] = Cytotoxicity against human RWPE1 cells after 48 hrs by MTT assay; format: cell-based; conditions: RWPE-1, 48 h
# [3] = Cytotoxicity against human PC3 cells after 48 hrs by MTT assay; format: functional, cell-based; conditions: PC-3, 48 h
# [4] = Cytotoxicity against human BT549 cells after 48 hrs by MTT assay; format: functional, cell-based; conditions: BT-549, 48 h
# [5] = system: MDA-MB-231; assay: cells; conditions: Homo sapiens, MDA-MB-231, 48 h
# Description: Cytotoxicity against human MDA-MB-231 cells after 48 hrs by MTT assay
# [6] = system: PC-3; assay: Induction of apoptosis in human PC3 cells assessed as downregulation of Bcl2 expression after 24 hrs by Western blot analysis; format: functional, cell-based
# [7] = system: PC-3; assay: Induction of apoptosis in human PC3 cells assessed as live cells at 2 uM after 24 hrs by Annexin V/FITC staining-based flow cytometric analysis (reference value: 85.7%); format: functional
# [8] = Antimigratory activity in human PC3 cells at 1 uM after 24 hrs by wound healing assay (reference value: 43.4%); format: functional, PC-3
# [9] = system: PC-3; assay: Induction of apoptosis in human PC3 cells assessed as nuclear fragmentation after 24 hrs by Hoechst […] staining-based confocal fluorescence microscopic analysis; format: functional, cell-based
# [10] = system: PC-3; assay: Induction of apoptosis in human PC3 cells assessed as live cells at 1 uM after 24 hrs by Annexin V/FITC staining-based flow cytometric analysis (reference value: 85.7%); format: functional
# [11] = Induction of apoptosis in human PC3 cells assessed as upregulation of Bax expression after 24 hrs by Western blot analysis; format: functional, cell-based; conditions: PC-3
# [12] = system: PC-3; assay: Disruption of mitochondrial membrane potential in human PC3 cells after 24 hrs by Rhodamine123 staining-based spectrofluorimetric analysis relative to control; format: functional, cell-based
# [13] = system: PC-3; assay: Induction of apoptosis in human PC3 cells assessed as late apoptotic cells at 1 uM after 24 hrs by Annexin V/FITC staining-based flow cytometric analysis (reference value: 4.3%); format: functional
# [14] = system: PC-3; assay: Induction of apoptosis in human PC3 cells assessed as caspase 3 activation after 24 hrs by Western blot analysis; format: functional, cell-based
# [15] = system: PC-3; assay: Induction of apoptosis in human PC3 cells assessed as necrotic cells at 1 uM after 24 hrs by Annexin V/FITC staining-based flow cytometric analysis (reference value: […]); format: functional
# [16] = system: PC-3; assay: Induction of apoptosis in human PC3 cells assessed as live cells at 4 uM after 24 hrs by Annexin V/FITC staining-based flow cytometric analysis (reference value: 85.7%); format: functional
# [17] = system: PC-3; assay: Cytotoxicity against human PC3 cells assessed as cell detachment at 1 to 4 uM after 48 hrs by phase contrast microscopic analysis relative to vehicle control; format: functional, cell-based
# [18] = Cell cycle arrest in human PC3 cells assessed as accumulation at G0/G1 phase at 2 uM after 24 hrs by propidium iodide staining-based flow cytometry (reference value: 71.7%); format: functional; conditions: PC-3
# [19] = system: PC-3; assay: Antimigratory activity in human PC3 cells after 24 to 48 hrs by assay; format: functional, cell-based
# [20] = Cell cycle arrest in human PC3 cells assessed as accumulation at G0/G1 phase at 4 uM after 24 hrs by propidium iodide staining-based flow cytometry (reference value: 71.7%); format: functional; conditions: PC-3
# [21] = system: PC-3; assay: Induction of apoptosis in human PC3 cells assessed as early apoptotic cells at 1 uM after 24 hrs by Annexin V/FITC staining-based flow cytometric analysis (reference value: 5.1%); format: functional
# [22] = system: PC-3; assay: Induction of apoptosis in human PC3 cells assessed as necrotic cells at 2 uM after 24 hrs by Annexin V/FITC staining-based flow cytometric analysis (reference value: […]); format: functional
# [23] = system: PC-3; assay: Induction of apoptosis in human PC3 cells assessed as early apoptotic cells at 2 uM after 24 hrs by Annexin V/FITC staining-based flow cytometric analysis (reference value: 5.1%); format: functional
# [24] = Antimigratory activity in human PC3 cells at 2 uM after 24 hrs by wound healing assay (reference value: 43.4%); format: functional, PC-3
# [25] = Cell cycle arrest in human PC3 cells assessed as accumulation at G0/G1 phase at 1 uM after 24 hrs by propidium iodide staining-based flow cytometry (reference value: 71.7%); format: functional; conditions: PC-3
# [26] = Cell cycle arrest in human PC3 cells assessed as accumulation at S phase at 2 uM after 24 hrs by propidium iodide staining-based flow cytometry (reference value: 9.3%); format: functional; conditions: PC-3
# [27] = Cell cycle arrest in human PC3 cells assessed as accumulation at S phase at 1 uM after 24 hrs by propidium iodide staining-based flow cytometry (reference value: 9.3%); format: functional; conditions: PC-3
# [28] = Cell cycle arrest in human PC3 cells assessed as accumulation at G0/G1 phase after 24 hrs by propidium iodide staining-based flow cytometry; format: functional; conditions: PC-3
# [29] = system: PC-3; assay: Induction of apoptosis in human PC3 cells assessed as necrotic cells at 4 uM after 24 hrs by Annexin V/FITC staining-based flow cytometric analysis (reference value: […]); format: functional
# [30] = Antimigratory activity in human PC3 cells at 4 uM after 24 hrs by wound healing assay (reference value: 43.4%); format: functional, PC-3
# [31] = Cell cycle arrest in human PC3 cells assessed as accumulation at G2/M phase at 4 uM after 24 hrs by propidium iodide staining-based flow cytometry (reference value: 19.2%); format: functional; conditions: PC-3
# [32] = system: PC-3; assay: Antimigratory activity in human PC3 cells at 1 to 2 uM after 48 hrs by wound healing assay; format: functional, cell-based
# [33] = system: PC-3; assay: Antimigratory activity in human PC3 cells assessed as disruption of F-actin formation around nucleus at 1 to 4 uM after 12 hrs by rhodamine phalloidin/Hoechst […] staining-based confocal microscopic analysis; format: functional, cell-based
# [34] = system: PC-3; assay: Induction of apoptosis in human PC3 cells assessed as early apoptotic cells at 4 uM after 24 hrs by Annexin V/FITC staining-based flow cytometric analysis (reference value: 5.1%); format: functional
# [35] = Cytotoxicity against human PC3 cells assessed as cell viability at 2 uM after 48 hrs by trypan blue assay; format: functional; conditions: PC-3, 48 h, read-out: Activity
# [36] = system: PC-3; assay: Induction of apoptosis in human PC3 cells after 24 hrs by Annexin V/FITC staining-based flow cytometric analysis; format: functional, cell-based
# [37] = Cell cycle arrest in human PC3 cells assessed as accumulation at S phase at 4 uM after 24 hrs by propidium iodide staining-based flow cytometry (reference value: 9.3%); format: functional; conditions: PC-3
# [38] = Cytotoxicity against human PC3 cells assessed as cell viability at 4 uM after 48 hrs by trypan blue assay; format: functional; conditions: PC-3, 48 h, read-out: Activity
# [39] = system: PC-3; assay: Cytotoxicity against human PC3 cells assessed as cell shrinkage at 1 to 4 uM after 48 hrs by phase contrast microscopic analysis relative to vehicle control; format: functional, cell-based
# [40] = system: PC-3; assay: Increase in intracellular Ca2+ level in human PC3 cells after 24 hrs by Fura-2/AM staining-based fluorescence microscopic analysis; format: functional, cell-based
# [41] = Cell cycle arrest in human PC3 cells assessed as accumulation at G2/M phase at 2 uM after 24 hrs by propidium iodide staining-based flow cytometry (reference value: 19.2%); format: functional; conditions: PC-3
# [42] = Disruption of mitochondrial membrane potential in human PC3 cells at 1 to 4 uM after 24 hrs by Rhodamine123 staining-based spectrofluorimetric analysis relative to control; format: functional, PC-3
# [43] = system: PC-3; assay: Induction of apoptosis in human PC3 cells assessed as late apoptotic cells at 2 uM after 24 hrs by Annexin V/FITC staining-based flow cytometric analysis (reference value: 4.3%); format: functional
# [44] = system: PC-3; assay: Induction of apoptosis in human PC3 cells assessed as chromatin condensation after 24 hrs by Hoechst […] staining-based confocal fluorescence microscopic analysis; format: functional, cell-based
# [45] = Cell cycle arrest in human PC3 cells assessed as accumulation at G2/M phase at 1 uM after 24 hrs by propidium iodide staining-based flow cytometry (reference value: 19.2%); format: functional; conditions: PC-3
# [46] = system: PC-3; assay: Induction of apoptosis in human PC3 cells assessed as late apoptotic cells at 4 uM after 24 hrs by Annexin V/FITC staining-based flow cytometric analysis (reference value: 4.3%); format: functional
smiles,measurement,setting,value
COc1cc(/C=C2\C(=O)Nc3ccccc32)ccc1OCC(=O)N1CCCCC1,IC50,[1],6.63 µM
same,IC50,[2],78.1 µM
same,IC50,[3],6.97 µM
same,IC50,[4],> 20 µM
same,IC50,[5],19.3 µM
COc1cc(/C=C2\C(=O)Nc3ccccc32)ccc1OCC(=O)N1CCOCC1,IC50,[1],5.75 µM
same,IC50,[2],81.8 µM
same,IC50,[3],5.97 µM
same,IC50,[4],8.87 µM
same,IC50,[5],9.78 µM
COc1cc(/C=C2\C(=O)Nc3ccccc32)ccc1OCC(=O)N1CCc2ccccc21,Activity,[6],Dose-dependent effect
same,IC50,[1],1.94 µM
same,Activity,[7],70.9%
same,Activity,[8],37.3%
same,Activity,[9],Dose-dependent effect
same,Activity,[10],77.7%
same,Activity,[11],Dose-dependent effect
same,Activity,[12],Dose-dependent effect
same,Activity,[13],8.3%
same,Activity,[14],Dose-dependent effect
same,Activity,[15],0.4%
same,IC50,[2],> 100 µM
same,Activity,[16],57.4%
same,Activity,[17],Active
same,Activity,[18],20.8%
same,Activity,[19],Dose-dependent effect
same,Activity,[20],19.4%
same,Activity,[21],13.6%
same,Activity,[22],1.3%
same,Activity,[23],17.6%
same,Activity,[24],29.4%
same,Activity,[25],39.1%
same,Activity,[26],27.6%
same,Activity,[27],18.5%
same,Activity,[28],Dose-dependent effect
same,Activity,[29],4.4%
same,Activity,[30],7.3%
same,Activity,[31],55.7%
same,Activity,[32],Active
same,Activity,[33],Active
same,Activity,[34],15.8%
same,viability at 2 µM,[35],53%
same,Activity,[36],Dose-dependent effect
same,IC50,[3],1.89 µM
same,Activity,[37],24.2%
same,viability at 4 µM,[38],45%
same,Activity,[39],Active
same,IC50,[4],7.17 µM
same,Activity,[40],Dose-dependent effect
same,IC50,[5],6.35 µM
same,Activity,[41],49.8%
same,Activity,[42],19%
same,Activity,[43],10.2%
same,Activity,[44],Dose-dependent effect
same,Activity,[45],41.6%
same,Activity,[46],22.4%
CCN(CC)CCNC(=O)c1c(C)[nH]c(/C=C2\C(=O)Nc3ccc(F)cc32)c1C [SUNITINIB],IC50,[1],16.4 µM
same,IC50,[2],23 µM
same,IC50,[3],19.6 µM
same,IC50,[4],15.5 µM
same,IC50,[5],7.4 µM
COc1cc(/C=C2\C(=O)Nc3ccccc32)ccc1OCC(=O)N1CCCC1,IC50,[1],> 20 µM
same,IC50,[3],> 20 µM
same,IC50,[4],> 20 µM
same,IC50,[5],> 20 µM
COc1cc(/C=C2\C(=O)Nc3ccccc32)ccc1OCC(=O)N1CC(C)OC(C)C1 (centres undefined),IC50,[1],> 20 µM
same,IC50,[3],> 20 µM
same,IC50,[4],> 20 µM
same,IC50,[5],> 20 µM
